The text below walks through data of US20160257697A1, “THIOPHENE-SUBSTITUTED TETRACYCLIC COMPOUNDS AND METHODS OFUSE THEREOF FOR THE TREATMENT OF VIRAL DISEASES” (priority 2013, published 2016).

Holding throughout (experiment): microbe, parasite or virus in culture
Holding throughout (format): cell-based, Hepatitis C virus (HCV)

One assay deals with HCV replicon 1B. To be noted: HCV replicon 1B, Replicon Assay B. (Replicon systems follow genome replication, usually without infectious particles.)
The test system of the next assay is HCV replicon 1AQ30D. To be noted: Replicon Assay B.
The subject of the next assay is HCV replicon 1AY93H. To be noted: Replicon Assay A. In outline: (§1)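 Replicon cells incubated with compound for 3 days in medium with 5% FBS and 0.5% DMSO final. Replicon RNA measured in lysates by multiplex real-time RT-PCR (Neo set) against cyclophilin control, quantified from standard curves of Ct versus log ng replicon total RNA.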
Another assay has as its system HCV replicon 2B. To be noted: Replicon Assay A. The method in brief: as §1
The subject of a further assay is HCV replicon 1A. To be noted: HCV replicon 1A, Replicon Assay A. The method in brief:
as §1

The mark [1] stands for this setting: read-out: 1A Q30D IC50, HCV replicon 1A Q30D.
Where [2] appears, read: read-out: 1A Y93H IC50, HCV replicon 1A Y93H.
Setting [3] is: read-out: 2B IC50, HCV replicon 2B.
[4] abbreviates: Hepatitis C virus, read-out: 1A Q30D IC50, HCV replicon 1A Q30D.
The mark [5] stands for this setting: Hepatitis C virus, read-out: 1A Y93H IC50, HCV replicon 1A Y93H.
The mark [6] stands for this setting: Hepatitis C virus, read-out: 2B IC50, HCV replicon 2B.

Where two headings read alike, the source gives them in different places.

Broadly, the IC50 is the midpoint of a concentration-inhibition curve. Consider `COC(=O)N[C@H](C(=O)N1CCC[C@H]1c1ncc(-c2cc(F)c3c(c2)OC(c2cc4c(s2)CCC4)n2c-3cc3cc(-c4cnc([C@@H]5C[C@H]6C[C@H]6N5C(=O)[C@@H](NC(=O)OC)C5CCOCC5)[nH]4)ccc32)[nH]1)C(C)C` (single isomer, unassigned) [Compound 542], for which the concentration for half-maximal inhibition (IC50) amounted to 0.00371 nM with HCV replicon 1B; 0.162 nM with HCV replicon 1AQ30D (setting [1]); 0.00855 nM with HCV replicon 1AY93H (setting [2]); 0.0335 nM in the assay with HCV replicon 2B (setting [3]); 0.00342 nM in the assay with HCV replicon 1A.

For the compound `CCc1ccc(C2Oc3cc(-c4cnc([C@@H]5CCCN5C(=O)[C@@H](NC(=O)OC)C(C)C)[nH]4)cc(C)c3-c3cc4cc(-c5cnc([C@@H]6CCCN6C(=O)C(NC(=O)OC)C6C[C@@H](C)O[C@@H](C)C6)[nH]5)ccc4n32)s1` (single isomer, unassigned) [Compound 543], the half-maximal inhibitory concentration (IC50) with HCV replicon 1B (Hepatitis C virus) was 0.00846 nM; in the assay on HCV replicon 1AQ30D (setting [4]), 0.311 nM; in the assay on HCV replicon 1AY93H (setting [2]), 0.0394 nM; in the assay on HCV replicon 2B (setting [3]), 0.0111 nM; with HCV replicon 1A (Hepatitis C virus) it was 0.00543 nM.

`CCc1ccc(C2Oc3cc(-c4cnc([C@@H]5CCCN5C(=O)[C@@H](NC(=O)OC)C(C)C)[nH]4)cc(C)c3-c3cc4cc(-c5cnc([C@@H]6CCCN6C(=O)C(NC(=O)OC)C6C[C@@H](C)O[C@H](C)C6)[nH]5)ccc4n32)s1` (single isomer, unassigned) [Compound 545]: the IC50 in the assay with HCV replicon 1B (Hepatitis C virus) is 0.00598 nM; in the assay on HCV replicon 1AQ30D (setting [4]), 0.11 nM; in the assay with HCV replicon 1AY93H (setting [2]) it was 0.024 nM; with HCV replicon 2B (setting [3]), 0.00645 nM; with HCV replicon 1A, 0.00355 nM.

In the case of `CCc1ccc(C2Oc3cc(-c4cnc([C@@H]5CCCN5C(=O)[C@@H](NC(=O)OC)C(C)C)[nH]4)cc(C)c3-c3cc4cc(-c5cnc([C@@H]6CCCN6C(=O)[C@@H](NC(=O)OC)C6CCOC(C)(C)C6)[nH]5)ccc4n32)s1` (single isomer, unassigned) [Compound 547], the IC50 with HCV replicon 1B (Hepatitis C virus) was 0.007 nM; in the assay on HCV replicon 1AQ30D (setting [4]), 0.96 nM; in the assay on HCV replicon 1AY93H (setting [5]), 0.13 nM; in the assay with HCV replicon 2B (setting [6]) it was 0.012 nM; in the assay on HCV replicon 1A (Hepatitis C virus) it was 0.007 nM.

As for `COC(=O)N[C@H](C(=O)N1CCC[C@H]1c1ncc(-c2cc(C)c3c(c2)OC(c2cc4c(s2)CCC4)n2c-3cc3cc(-c4cnc([C@@H]5CCCN5C(=O)[C@@H](NC(=O)OC)C5C[C@@H](C)O[C@@H](C)C5)[nH]4)ccc32)[nH]1)C(C)C` (single isomer, unassigned) [Compound 548], the concentration for half-maximal inhibition (IC50) in the assay on HCV replicon 1B (Hepatitis C virus) was 0.00968 nM; in the assay with HCV replicon 1AQ30D (setting [4]), 1.4 nM; with HCV replicon 1AY93H (setting [2]), 0.0658 nM; in the assay with HCV replicon 2B (setting [3]), 0.0231 nM; in the assay on HCV replicon 1A, 0.00758 nM.

In the case of `COC(=O)N[C@H](C(=O)N1CCC[C@H]1c1ncc(-c2cc(F)c3c(c2)OC(c2cc4c(s2)CCC4)n2c-3cc3cc(-c4cnc([C@@H]5C[C@H]6C[C@H]6N5C(=O)[C@@H](NC(=O)OC)C5C[C@@H](C)O[C@@H](C)C5)[nH]4)ccc32)[nH]1)C(C)C` (single isomer, unassigned) [Compound 551], the half-maximal inhibitory concentration (IC50) with HCV replicon 1B was 0.00791 nM; in the assay on HCV replicon 1AQ30D (setting [1]), 0.172 nM; in the assay on HCV replicon 1AY93H (setting [2]), 0.0167 nM; in the assay with HCV replicon 2B (setting [3]), 0.0847 nM; in the assay on HCV replicon 1A, 0.00629 nM.

As for `COC(=O)N[C@H](C(=O)N1CCC[C@H]1c1ncc(-c2cc(F)c3c(c2)OC(c2cc4c(s2)CCC4)n2c-3cc3cc(-c4cnc([C@@H]5C[C@H]6C[C@H]6N5C(=O)[C@@H](NC(=O)OC)C5C[C@@H](C)O[C@@H](C)C5)[nH]4)ccc32)[nH]1)C(C)C` (single isomer, unassigned) [Compound 553], the IC50 amounted to 0.0482 nM with HCV replicon 1B; 0.708 nM with HCV replicon 1AQ30D (setting [1]); 0.0396 nM in the assay on HCV replicon 1AY93H (setting [2]); 0.218 nM in the assay with HCV replicon 2B (setting [3]); 0.0441 nM with HCV replicon 1A.

As to `COC(=O)N[C@H](C(=O)N1C2CC2C[C@H]1c1ncc(-c2cc(F)c3c(c2)OC(c2ccc(C4CC4)s2)n2c-3cc3cc(-c4cnc([C@@H]5CCCN5C(=O)[C@@H](NC(=O)OC)C5C[C@@H](C)O[C@@H](C)C5)[nH]4)ccc32)[nH]1)C(C)C` (single isomer, unassigned) [Compound 554], the 50% inhibitory concentration (IC50) was found to be 0.0226 nM in the assay with HCV replicon 1B; 1.67 nM in the assay with HCV replicon 1AQ30D (setting [1]); 0.237 nM with HCV replicon 1AY93H (setting [2]); 0.203 nM with HCV replicon 2B (setting [3]); 0.0268 nM in the assay on HCV replicon 1A.

Regarding `COC(=O)N[C@H](C(=O)N1C2CC2C[C@H]1c1ncc(-c2cc(F)c3c(c2)OC(c2ccc(C4CC4)s2)n2c-3cc3cc(-c4cnc([C@@H]5CCCN5C(=O)[C@@H](NC(=O)OC)C5C[C@@H](C)O[C@@H](C)C5)[nH]4)ccc32)[nH]1)C(C)C` (single isomer, unassigned) [Compound 557], the half-maximal inhibitory concentration (IC50) turned out to be 0.00249 nM with HCV replicon 1B; 0.041 nM in the assay on HCV replicon 1AQ30D (setting [1]); 0.00464 nM with HCV replicon 1AY93H (setting [2]); 0.0151 nM in the assay with HCV replicon 2B (setting [3]); 0.00311 nM in the assay with HCV replicon 1A.

For `CCc1ccc(C2Oc3cc(-c4cnc([C@@H]5CCCN5C(=O)[C@@H](NC(=O)OC)C(C)C)[nH]4)cc(C)c3-c3cc4cc(-c5cnc([C@@H]6CCCN6C(=O)[C@@H](NC(=O)OC)C6CCOCC6)[nH]5)ccc4n32)s1` (single isomer, unassigned) [Compound 560], the 50% inhibitory concentration (IC50) is 0.00993 nM in the assay on HCV replicon 1B (Hepatitis C virus); 1.56 nM in the assay on HCV replicon 1AQ30D (setting [4]); 0.13 nM with HCV replicon 1AY93H (setting [5]); 0.0516 nM with HCV replicon 2B (setting [6]); 0.0071 nM with HCV replicon 1A (Hepatitis C virus).

As for `CCc1ccc(C2Oc3cc(-c4cnc([C@@H]5CCCN5C(=O)[C@@H](NC(=O)OC)C(C)C)[nH]4)ccc3-c3c(F)c4cc(-c5cnc([C@@H]6CCCN6C(=O)[C@@H](NC(=O)OC)C(C)C)[nH]5)ccc4n32)s1` (single isomer, unassigned) [Compound 602], the concentration for half-maximal inhibition (IC50) with HCV replicon 1B (Hepatitis C virus) came out at 0.0017 nM; with HCV replicon 1AQ30D (setting [4]) it was 0.597 nM; in the assay on HCV replicon 1AY93H (setting [2]) it was 0.066 nM; in the assay with HCV replicon 2B (setting [3]), 0.143 nM; in the assay on HCV replicon 1A, 0.001 nM.

With `COC(=O)N[C@H](C(=O)N1CCC[C@H]1c1ncc(-c2ccc3c(c2)OC(c2ccc(C4CC4)s2)n2c-3c(F)c3cc(-c4cnc([C@@H]5CCCN5C(=O)[C@@H](NC(=O)OC)C(C)C)[nH]4)ccc32)[nH]1)C(C)C` (single isomer, unassigned) [Compound 604], the half-inhibitory concentration (IC50) came to 0.0011 nM in the assay on HCV replicon 1B; 0.704 nM in the assay with HCV replicon 1AQ30D (setting [4]); 0.0318 nM in the assay on HCV replicon 1AY93H (setting [2]); 0.0624 nM in the assay with HCV replicon 2B (setting [3]); 0.0013 nM in the assay on HCV replicon 1A (Hepatitis C virus).

On to `COC(=O)N[C@H](C(=O)N1CCC[C@H]1c1ncc(-c2ccc3c(c2)OC(c2ccc(C4CC4)s2)n2c-3c(F)c3cc(-c4cnc([C@@H]5C[C@H]6C[C@H]6N5C(=O)[C@@H](NC(=O)OC)C(C)C)[nH]4)ccc32)[nH]1)C(C)C` (single isomer, unassigned) [Compound 611], for which the concentration for half-maximal inhibition (IC50) came out at 0.0014 nM in the assay on HCV replicon 1B (Hepatitis C virus); 0.443 nM in the assay with HCV replicon 1AQ30D (setting [1]); 0.0115 nM in the assay on HCV replicon 1AY93H (setting [2]); 0.183 nM in the assay with HCV replicon 2B (setting [3]); 0.0019 nM in the assay on HCV replicon 1A (Hepatitis C virus).

Take `COC(=O)N[C@H](C(=O)N1CCC[C@H]1c1ncc(-c2ccc3c(c2)OC(c2ccc(C4CC4)s2)n2c-3c(F)c3cc(-c4cnc([C@@H]5C[C@H]6C[C@H]6N5C(=O)[C@@H](NC(=O)OC)C(C)C)[nH]4)ccc32)[nH]1)C(C)C` (single isomer, unassigned) [Compound 613]: the IC50 in the assay on HCV replicon 1B worked out at 0.0023 nM; in the assay on HCV replicon 1AQ30D (setting [1]), 0.992 nM; in the assay with HCV replicon 1AY93H (setting [2]) it was 0.0157 nM; in the assay on HCV replicon 2B (setting [3]), 0.342 nM; in the assay on HCV replicon 1A, 0.0025 nM.
